The values below come from US20040048376A1, “Methods for modulating splicing and/or alternative splicing, and for identifying alternatively spliced units in genes” (priority 2000, published 2004).

Molecules are shown by their SMILES.

The test system of experiment [1] is 5′ splice site selection, hnRNP A1 independent. Nature of the experiment: In vitro splicing where distal 5′ splice site selection is promoted by an hnRNP A1 independent mechanism (secondary structure formation). The format is biochemical. From the text: (§1) DMSO was shown not to affect constitutive (generic) splicing in nuclear extracts. […] When distal 5′ splice site selection is promoted by an hnRNP A1 independent mechanism (e.g., secondary structure formation), 5′ splice site selection is not affected by DMSO. […] This effect is also specific since the addition of equivalent amounts of GST or gene 32 protein has no effect when added to DMSO-containing extracts. In addition, DMSO affects generic splicing in S-100 extracts which are post-nuclear extracts containing residual amounts of SR proteins and U2AF proteins.

Experiment [2] relates to mouse neuroblastoma N2a cells, NCAM pre-mRNA. To be noted: 2% DMSO; cited from earlier work.
Experiment [3] has as its system constitutive splicing in nuclear extracts. Nature of the experiment: Constitutive (generic) splicing of a model pre-mRNA in nuclear extracts. In kind it is biochemical, human. To be noted: up to 2.5% DMSO.
From the text: as §1

The test system of experiment [4] is mouse neuroblastoma N2a cells, NCAM pre-mRNA. Nature of the experiment: NCAM exon 18 inclusion in N2a cells, RNase T1 protection assay. To be noted: 2% DMSO, 48 hrs, not shown. The format is cell-based. Here is the method: Mouse neuroblastoma N2a cells were cultured at 37° C. in DMEM supplemented with 10% bovine calf serum. […] For treatment with DMSO, medium containing 2% […] was used. Following treatment, total RNA was isolated and a Rnase T1 protection assay was performed using a uniformly labeled 530 nt NCAM antisense RNA probe. Exon 17/exon19 splicing yielded a 303 protected fragment while the inclusion of exon 18 produced a 452 nt fragment. Products were resolved on a 5% denaturing acrylamide gel.

Regarding `C[S+](C)[O-]` [DMSO, Dimethyl sulfoxide], the “5′ splice site selection promoted by hnRNP A1 independent mechanism” value in experiment [1] is listed as “not affected”. Besides, in experiment [2], the “inclusion of NCAM neuro-specific exon 18 (literature)” value was “promotes an increase in the inclusion of neuro-specific exon 18”. The “constitutive splicing of model pre-mRNA” value in experiment [3] is “remains spliced efficiently”. Also, the “abundance of NCAM mRNA carrying exon 18” value in experiment [4] is listed as “strong increase”.
